Data from publication PMC7069920, “Schizandrin A exhibits potent anticancer activity in colorectal cancer cells by inhibiting heat shock factor 1” (Bioscience Reports, 2020).

Key:
HSF1 [1] = conditions: read-out: IC50, heat shock-induced HSF1 reporter activity; cited from earlier work
RKO cells [2] = assay: MTS cell viability assay, RKO; assay type: cell-based; conditions: Homo sapiens, 72 h, read-out: IC50, antiproliferative effect
Protocol: (§1) The Cell Titer 96 Aqueous Non-Radioactive Cell Proliferation Assay Kit (Promega, U.S.A.) was utilized to measure cell viability. RKO, DLD-1 cells (5 × 10^3 cells/well) and SW620, SW480 (6 × 10^3 cells/well) were seeded in 96-well plates overnight. This was followed by the removal of the culture medium and the exposure of all cells to different concentrations of chemical treatment for 72 h. The absorbance value of each well was determined by a microplate reader at 490 nm. Each experiment was repeated for three times.

DLD-1 cells = assay: MTS cell viability assay, DLD-1; assay type: cell-based; conditions: Homo sapiens, 72 h, read-out: IC50, antiproliferative effect
Protocol: as §1

SW620 cells = assay: MTS cell viability assay, SW620; assay type: cell-based; conditions: Homo sapiens, SW-620, 72 h, read-out: IC50 (50% inhibition), antiproliferative effect
Protocol: as §1

SW480 cells = assay: MTS cell viability assay, SW480; assay type: cell-based; conditions: Homo sapiens, 72 h, read-out: IC50 (50% inhibition), antiproliferative effect
Protocol: as §1

CCD 841 CoN cells = assay: MTS cell viability assay, normal colon epithelial cells; assay type: cell-based, human; conditions: 72 h
RKO cells [3] = assay: Cell cycle analysis by flow cytometry (PI); assay type: cell-based, human
Protocol: Cells (3 × 10^5 cells/well) were seeded in six-well plates and allowed to adhere overnight. The next day, the cells were treated with different compounds as indicated for 24 h. The cells were then trypsinized, washed, and fixed in 75% ice-cold ethanol at 4°C overnight. After centrifugation, the pellets were washed with cold PBS, suspended in 500 μl PBS with […] PI and incubated in the dark at 4°C for 30 min. Then cell suspension was tested using an FACS Calibur instrument (Becton Dickinson FACSCalibor, BD Biosciences, Franklin Lakes, NJ, U.S.A.).

HSF1 [4] = assay: HSE luciferase reporter assay (heat shock-induced HSF1 reporter activity); assay type: cell-based; conditions: Homo sapiens, RKO cells, 30 min pretreatment, 43°C 1 h, 5 h recovery
Protocol: The double-strand DNA containing four copies of the palindromic HSE (5′-[…]-3′) was synthesized and inserted into the multiple cloning site (MCS) of pGL3-basic vector (Promega, U.S.A.), which was named as p(HSE)4-basic vector. Then, the Dual-Glo® Luciferase Assay System (Promega, U.S.A.) was used to measure the activity of the reporter. Briefly, RKO cells (3 × 10^5 cells/well) were seeded in six-well plates. After being cultured overnight, cells were co-transfected with 2 μg of p(HSE)4-basic vector and 0.2 μg of pRL-TK using X-treme GENE HP DNA Transfection Reagent (Roche, U.S.A.) according to the manufacturer’s protocol. The Renilla luciferase gene was transfected as an internal control vector. Twenty-four hours after transfection, cells were trypsinized and seeded in 12-well plates at a density of 8 × 10^4 cells per well. The next day, cells were incubated with Sch A at different concentrations for 30 min, exposed to heat shock at 43°C for 60 min, and then incubated further at 37°C for 5 h. Firefly and Renilla luciferase activities were measured using a dual-light reporter gene assay kit (Promega) with a Synergy 2 BioTek plate reader (BioTek, U.S.A.).

RKO and SW620 cells = assay: Clonogenic (colony-forming) assay; assay type: cell-based, human; conditions: 75 and 150 μM for 24 h, colonies stained on 14th day, vs negative control
Protocol: RKO cells were seeded at a density of 800 cells per well in six-well cell culture plate overnight. Then Sch A was mixed into the culture medium and added at different concentrations. After 24 h, the culture medium was replaced with fresh culture medium, and was allowed to grow for an additional 14 ays. Following this, the medium was removed from the colonies, which were then washed twice with PBS, fixed with methanol for 15 min, stained with Crystal Violet for 15 min, and finally washed with running water for 5 min. Colonies containing more than 50 cells were counted, and then photographed for visualization.
Furthermore, colony-forming assays were performed to assess the long-term inhibitory effects of Sch A treatment. After 24 h of treatment with Sch A (75 and 150 μM), the cell culture was replaced with fresh medium every 3 days. On the 14th day, cell colonies were stained with 0.1% Crystal Violet and photographed.

[5] = system: HSP70, HSP27 and HSP90 mRNA; assay: qRT-PCR of HSF1 target genes after heat shock; assay type: cell-based, human; conditions: RKO, 50-150 μM, heat shock 43°C 1 h, recovery 37°C 0.5 h
Protocol: Total RNA was extracted with TRIzol reagent (Invitrogen) following the manufacturer’s protocol. RNA concentrations were quantified by NanoDrop 2000 (Nanodrop, U.S.A.). Two micrograms RNA was reverse transcribed with High-Capacity cDNA Reverse Transcription Kit (Applied Biosystems, U.S.A.). Quantitative real-time PCR was performed to determine the mRNA expression level using SYBR Green Master Mix Kit and Light Cycler 480 II system (Roche, Shanghai, China).
Relative quantities of HSP70, HSP90 and HSP27 mRNA were normalized against ACTB mRNA.

Hsp70 and Hsp27 = assay: Western blot of HSF1 downstream proteins; assay type: cell-based, human; conditions: RKO, 50-150 μM, heat shock or 24 h at normal temperature
Protocol: (§2) After 24 h of treatment as indicated, the cells were washed once with PBS. The total proteins were extracted with RIPA buffer supplemented with protease inhibitors (Roche, U.S.A.) and quantified with BSA standard methodology. Equal amounts of proteins were separated by SDS/PAGE and transferred to a PVDF membrane. After blocking with 5% non-fat dry milk in TBST for 1.5 h, the membrane was incubated with a specific primary antibody diluted 1:1000 overnight at 4°C, and the secondary antibody was then conjugated with HRP (1:5000, Santa Cruz, CA) at room temperature for 2 h. The immunoreactive bands were visualized with enhanced chemiluminescence liquid (Millipore, Billerica, MA, U.S.A.) in Amersham Imager 600 system (GE Healthcare Life Sciences, Shanghai, China).

[6] = system: p-Rb (S807/811), Cyclin D1, Cdk4, Cdk6; assay: Western blot of cell cycle-related proteins; assay type: cell-based, human; conditions: RKO, 50-150 μM, 24 h
Protocol: as §2

[7] = system: Cleaved-PARP, Cleaved-caspase-3, Bcl-2; assay: Western blot of apoptosis-related proteins; assay type: cell-based, human; conditions: RKO, 50-150 μM, 24 h
Protocol: Flow cytometer analysis and Western blotting were used to detect cell apoptosis. For flow cytometer analysis of apoptosis, cells were treated […] for 24 h, washed twice with PBS, and re-suspended in 100 μl of 1 × binding buffer. Five microliters of FITC Annexin V and propidium iodide (PI) (556547, BD Biosciences, U.S.A.) were added to the cell suspension and then incubated at room temperature for 15 min. After dilution with 400 μl binding buffer, the samples were analyzed using an ACS Calibur flow cytometer (BD). For apoptosis using Western blotting, cleaved caspase 3, cleavage of PARP, Bcl-2, and BCl-xL were analyzed.
as §2

[8] = statement in discussion, no experiment and reference not given; cited from earlier work
[9] = biological target: T1, human recombinant HSF1 full-length protein (Homo sapiens, UniProt Q00613); assay: SPR direct binding to HSF1
T1 sequence (Q00613 1-529): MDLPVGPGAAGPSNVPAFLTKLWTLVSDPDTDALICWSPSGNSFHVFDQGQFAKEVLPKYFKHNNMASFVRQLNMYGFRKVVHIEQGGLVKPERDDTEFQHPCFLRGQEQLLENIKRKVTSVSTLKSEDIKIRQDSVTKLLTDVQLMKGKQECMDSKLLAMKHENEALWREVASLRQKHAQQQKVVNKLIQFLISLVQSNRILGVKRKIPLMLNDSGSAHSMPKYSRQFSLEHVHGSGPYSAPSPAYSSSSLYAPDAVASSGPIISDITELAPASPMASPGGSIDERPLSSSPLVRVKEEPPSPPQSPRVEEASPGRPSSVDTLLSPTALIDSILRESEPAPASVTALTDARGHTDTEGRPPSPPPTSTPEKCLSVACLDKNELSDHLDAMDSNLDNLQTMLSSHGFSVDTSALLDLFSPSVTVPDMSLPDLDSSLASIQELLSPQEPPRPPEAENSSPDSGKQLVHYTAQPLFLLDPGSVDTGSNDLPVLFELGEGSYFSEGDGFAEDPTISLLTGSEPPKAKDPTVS
Protocol: SPR experiments were performed on a ProteOn XPR36 Protein Interaction Array system (Bio-Rad Laboratories, Hercules, CA, U.S.A.). Briefly, HSF1 solution in PBST (5 mM, pH 7.4) at a concentration of 1 mg/ml was diluted to 30 μg/ml with sodium acetate buffer (pH 4.5). The chip was activated with EDC/NHS (10 μl/min for 600 s). Then, HSF1 was loaded (5 μl/min for 400 s) and immobilized covalently. Approximately 7000 RU of HSF1 was immobilized on the chip. Any excess of unbound HSF1 was removed by flowing PBS solution (5 mM, pH 7.4, with 5%, w/v, DMSO). […] Five concentrations were injected simultaneously at a flow rate of 30 μM/min for 120 s of association phase, followed with 120 s of dissociation phase at 25°C. The final graph was obtained by subtracting blank sensorgrams from the duplex or quadruplex sensorgrams. Data were analyzed using the ProteOn manager software.

With `CNc1ccc([N+](=O)[O-])c(Nc2ccc3[nH]ncc3c2)n1` [KRIBB11] as the compound, how does the IC50 (HSF1 [1]) read?
Its IC50 is 1200 nM.

Which IC50 (RKO cells [2]) does the source give for `COc1cc2c(c(OC)c1OC)-c1c(cc(OC)c(OC)c1OC)C[C@H](C)[C@H](C)C2` [Sch A, Schizandrin A] here?
The IC50 was 68.7 µM.

What about the IC50 (DLD-1 cells) of the same compound?
The IC50 was over 150 µM.

What about the IC50 (SW620 cells) of the same compound?
The IC50 was 85.7 µM.

What about the IC50 (SW480 cells) of the same compound?
The IC50 was 87.6 µM.

And the “effect on cell viability” value (CCD 841 CoN cells; CCD 841 CoN cells, up to 150 μM)?
Its value is “little effect on the cell viability”.

And the IC50 (CCD 841 CoN cells; Homo sapiens, CCD 841 CoN normal colon epithelial cells, MTS, read-out: IC50, antiproliferative effect)?
The IC50 was over 150 µM.

And the “Dip G2” value (RKO cells [3]; 50 μM, 24 h (DMSO 15.92 %))?
Its value is 14.49%.

And the “Dip S” value (RKO cells [3]; 50 μM, 24 h (DMSO 38.03 %))?
Its value is 30.80%.

And the “Dip G1” value (RKO cells [3]; 50 μM, 24 h (DMSO 46.05 %))?
The value was 54.71%.

What about the “Dip G1” value (RKO cells [3]; 75 μM, 24 h) of the same compound?
Its value is 62.16%.

And the “Dip G2” value (RKO cells [3]; 75 μM, 24 h)?
The value was 10.56%.

And the “Dip S” value (RKO cells [3]; 75 μM, 24 h)?
Its value is 27.28%.

And the “Dip G1” value (RKO cells [3]; 100 μM, 24 h)?
The value was 72.26%.

What about the “Dip G2” value (RKO cells [3]; 100 μM, 24 h) of the same compound?
Its value is 7.82%.

What about the “Dip S” value (RKO cells [3]; 100 μM, 24 h) of the same compound?
The value was 19.93%.

What about the “Dip G1” value (RKO cells [3]; 150 μM, 24 h) of the same compound?
Its value is 82.94%.

And the “Dip G2” value (RKO cells [3]; 150 μM, 24 h)?
The value was 8.53%.

And the “Dip S” value (RKO cells [3]; 150 μM, 24 h)?
The value was 8.53%.

And the inhibition at 100 µM (HSF1 [4])?
Its inhibition at 100 µM is about 50%.

And the “effect on clone formation” value (RKO and SW620 cells)?
The value was “stronger inhibitory effect on cancer cell growth in a dose-dependent manner”.

What about the “transcription of HSF1 target genes (HSP70, HSP27, HSP90 mRNA)” value [5] of the same compound?
Its value is “effectively blocked the transcription of HSF1 target genes”.

And the “HSF1-regulated downstream signaling induced by heat shock and basal expression of Hsp 70 and Hsp 27” value (Hsp70 and Hsp27)?
Its value is “effectively down-regulated”.

What about the “expression of cell cycle-related proteins (p-Rb, Cyclin D1, Cdk4, Cdk6)” value [6] of the same compound?
The value was “reducing the expression of cell cycle-related proteins”.

What about the “expression of anti-apoptotic protein Bcl-2” value [7] of the same compound?
Its value is “decreased”.

And the “expression of pro-apoptotic molecules (Cleaved-PARP and Cleaved-caspase-3)” value [7]?
Its value is “significantly elevated”.

And the water solubility [8]?
Its water solubility is “low water solubility”.

What about the Kd [9] of the same compound?
Its Kd is 106 µM.

What about the kon ([9]; pH 7.4, read-out: Ka (association constant, SPR)) of the same compound?
Its kon is 26900 M⁻¹ s⁻¹.
